# Experimental data published in patent publication US20220251105A1, “METHODS OF TREATING A MK2-MEDIATED DISORDER” (Celgene CAR LLC, priority 2019, published 2022).
# Where two headings read alike, the source gives them in different places.
# Columns and labels:
# [1] = tested on: Mannan PsA in C57B1/6 mice; assay: mannan-induced psoriatic arthritis model; format: in vivo, mouse
# [2] = steady-state plasma exposure in mouse disease models; format: in vivo; details: 3 mg/kg
# [3] = single intravenous dose pharmacokinetics in Sprague Dawley rats; format: in vivo; details: rat, plasma; for Vd: read-out: Vdss
# Protocol: (§1) In vitro and in vivo studies were conducted to characterize the absorption, PK, distribution, and metabolism of Compound 1. […] Additionally, plasma samples from single dose PK studies in mice and monkeys were evaluated for circulating metabolites.
# [4] = single intravenous dose pharmacokinetics in cynomolgus monkeys; format: in vivo; details: cynomolgus monkey, plasma; for Vd: read-out: Vdss;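 for AUCLST: AUC to the last measurable time point (AUClast)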
# Protocol: as §1
# [5] = single oral dose pharmacokinetics in cynomolgus monkeys; format: in vivo, cynomolgus monkey
# Protocol: as §1
# [6] = tested on: Monkey/Cynomolgus; assay: 7-day repeat dose toxicity study in cynomolgus monkeys; format: in vivo; details: monkeys, 25, 75, 250 mg/kg/day
# Protocol: (§2) In cynomolgus monkeys, a 7-day repeat dose toxicity study was conducted with doses up to 250 mg/kg/day. […] To aid in dose selection for a subsequent pivotal study, an additional study was conducted to determine the maximum feasible dose under optimal feeding conditions in cynomolgus monkeys. […] Dosing monkeys in the fasted state prior to dosing yielded more consistently higher exposures. Therefore, a dose of 375 mg/kg in 0.5% methyl cellulose (400 cps) and 0.1% Tween 80 administered to fasted monkeys was selected for the 14-day repeat-dose phase of the study, and was considered the maximum feasible dose.
# [7] = toxicokinetics, 7-day monkey study; format: in vivo; details: cynomolgus monkey, plasma, oral, monkeys, read-out: Mean Day 7 AUC0-last
# Protocol: as §2
# [8] = tested on: healthy adult subjects; assay: Phase 1 first in human study, safety and tolerability; format: in vivo
# Protocol: The 2 sentinel subjects (chosen according to a randomization scheme) were dosed on Day 1. After at least 24 hours, the safety profile was acceptable to the Investigator (based on, at minimum, adverse events [AEs], concomitant medications and procedures, and any other important clinical observations), and the remainder of the cohort was dosed according to the randomization schedule.
# The same total daily dose was then administered for the remainder of the planned treatment schedule (Days 2 to 14, inclusive).
# Results. This study was a Phase 1, three-part study with a double-blind, placebo-controlled, single ascending dose (SAD) phase, a double-blind multiple ascending dose (MAD) phase, and an open-label cross-over food effect phase. The study enrolled a total of 97 healthy adult subjects.
# [9] = tested on: TNF-α secretion by PBMCs; assay: ex vivo studies of PBMCs from healthy volunteers; format: cell-based, human; details: at TE of 60%
# [10] = tested on: CYP3A4/5; assay: in vitro assessment of CYP inhibition; format: in vitro ADME, human; details: in vitro assessments
# Protocol: as §1
# [11] = in vivo; details: HLA-B27/Huβ2m transgenic, rat, plasma, po
# From the text: (§3) In each disease model, steady-state pharmacokinetics were characterized.
# [12] = plasma exposure in HLA-B27/Huβ2m rats; details: HLA B27 Tg rat, 20 mg/kg
# From the text: as §3
# [13] = exposure in 91-day mouse toxicology study; details: for AUC: mouse, plasma
# [14] = exposure in 28- and 91-day monkey toxicology studies
# [15] = cynomolgus, monkey, female, single IV 5 mg/kg
# [16] = cynomolgus, monkey, male, single IV 5 mg/kg
# [17] = cynomolgus monkey, plasma, monkey, female, single oral 50 mg/kg
# [18] = cynomolgus monkey, plasma, monkey, female, single oral 150 mg/kg
# [19] = cynomolgus monkey, plasma, monkey, female, single oral 375 mg/kg
# [20] = cynomolgus monkey, plasma, monkey, male, single oral 50 mg/kg
# [21] = cynomolgus monkey, plasma, monkey, male, single oral 150 mg/kg
# [22] = cynomolgus monkey, plasma, monkey, male, single oral 375 mg/kg
compound,measurement,setting,value
CCOCc1cnc(Cl)nc1Oc1ccc2c(ccc3sc4c(c32)NC[C@@H](C)NC4=O)n1 [Compound 1],% Inhibition by PsASI,"[1]; 3 mg/kg, from PsASI-score time curve",36% by
same,Minimally Efficacious Dose,"[1]; endpoint PsASI score (ear thickness, skin flakiness, paw score combined)",3 mg/kg
same,AUC,"[2]; BALB/c, mouse, CAIA in BALB/c mice",626 ng·h/mL
same,AUC,"[2]; BALB/c, mouse, imiquimod ear swelling in BALB/c mice",917 ng·h/mL
same,AUC,"[2]; C57B1/6, mouse, mannan PsA in C57B1/6 mice",467 ng·h/mL
same,half-life,"[3]; both sexes, iv, 5 mg/kg, rats, read-out: terminal half-life",≤ 1 h
same,AUC,"[3]; female, single IV 5 mg/kg",3950 ng·h/mL
same,AUC(0-inf),"[3]; female, single IV 5 mg/kg",3960 ng·h/mL
same,clearance,"[3]; female, single IV 5 mg/kg",21.5 mL/min/kg
same,Vd,"[3]; female, single IV 5 mg/kg",0.561 L/kg
same,half-life,"[3]; female, single IV 5 mg/kg, read-out: t1/2,z (converted)",1.1 h
same,AUC,"[3]; male, single IV 5 mg/kg",2020 ng·h/mL
same,AUC(0-inf),"[3]; male, single IV 5 mg/kg",2020 ng·h/mL
same,clearance,"[3]; male, single IV 5 mg/kg",42.2 mL/min/kg
same,Vd,"[3]; male, single IV 5 mg/kg",0.648 L/kg
same,half-life,"[3]; male, single IV 5 mg/kg, read-out: t1/2,z (converted)",0.23 h
same,half-life,"[4]; both sexes, iv, 5 mg/kg, monkeys, read-out: terminal half-life",≤ 1 h
same,AUC,[4]; [15],2200 ng·h/mL
same,AUC(0-inf),[4]; [15],2210 ng·h/mL
same,clearance,[4]; [15],38.3 mL/min/kg
same,Vd,[4]; [15],1.93 L/kg
same,half-life,"[4]; cynomolgus, monkey, female, single IV 5 mg/kg, read-out: t1/2,z (converted)",0.98 h
same,AUC,[4]; [16],1920 ng·h/mL
same,AUC(0-inf),[4]; [16],1920 ng·h/mL
same,clearance,[4]; [16],43.5 mL/min/kg
same,Vd,[4]; [16],1.81 L/kg
same,half-life,"[4]; cynomolgus, monkey, male, single IV 5 mg/kg, read-out: t1/2,z (converted)",0.95 h
same,bioavailability,"[5]; both sexes, cynomolgus monkey, plasma, po, monkeys, doses in the range 15 to 375 mg/kg",8 to 28%
same,Tmax,"[5]; both sexes, cynomolgus monkey, plasma, monkeys, oral dosing, read-out: time to maximum plasma concentration (tmax)",1 to 6 h
same,AUC,[5]; [17],3810 ng·h/mL
same,AUC(0-inf),[5]; [17],3840 ng·h/mL
same,Cmax,[5]; [17],1040 ng/mL
same,Tmax,"[5]; cynomolgus monkey, plasma, monkey, female, single oral 50 mg/kg, median, read-out: tmax",2 h
same,AUC,[5]; [18],4750 ng·h/mL
same,AUC(0-inf),[5]; [18],4820 ng·h/mL
same,Cmax,[5]; [18],1200 ng/mL
same,Tmax,"[5]; cynomolgus monkey, plasma, monkey, female, single oral 150 mg/kg, median, read-out: tmax",2 h
same,AUC,[5]; [19],22600 ng·h/mL
same,AUC(0-inf),[5]; [19],22700 ng·h/mL
same,Cmax,[5]; [19],2530 ng/mL
same,Tmax,"[5]; cynomolgus monkey, plasma, monkey, female, single oral 375 mg/kg, median, read-out: tmax",6 h
same,AUC,[5]; [20],3680 ng·h/mL
same,AUC(0-inf),[5]; [20],3710 ng·h/mL
same,Cmax,[5]; [20],865 ng/mL
same,Tmax,"[5]; cynomolgus monkey, plasma, monkey, male, single oral 50 mg/kg, median, read-out: tmax",2 h
same,AUC,[5]; [21],8480 ng·h/mL
same,AUC(0-inf),[5]; [21],8590 ng·h/mL
same,Cmax,[5]; [21],1990 ng/mL
same,Tmax,"[5]; cynomolgus monkey, plasma, monkey, male, single oral 150 mg/kg, median, read-out: tmax",1 h
same,AUC,[5]; [22],13900 ng·h/mL
same,AUC(0-inf),[5]; [22],14000 ng·h/mL
same,Cmax,[5]; [22],1890 ng/mL
same,F,"[5]; monkey, female, single oral 50 mg/kg",19%
same,F,"[5]; monkey, female, single oral 150 mg/kg",8%
same,F,"[5]; monkey, female, single oral 375 mg/kg",15%
same,F,"[5]; monkey, male, single oral 50 mg/kg",18%
same,F,"[5]; monkey, male, single oral 150 mg/kg",14%
same,F,"[5]; monkey, male, single oral 375 mg/kg",9%
same,"Findings, 7 days",[6],no compound-related findings in any endpoints
same,AUC(0-t),[7]; 25 mg/kg/day,1090 ng·h/mL
same,AUC(0-t),[7]; 75 mg/kg/day,1170 ng·h/mL
same,AUC(0-t),[7]; 250 mg/kg/day,9440 ng·h/mL
same,most common TEAEs suspected related (skin and subcutaneous tissue disorder),"[8]; Part 1, 400-mg dose level, 2 TEAEs in 2 subjects","mild, transient, pruritic, erythematous rash without other organ involvement"
same,severe TEAEs or serious adverse events,"[8]; Part 1, single doses 3 mg to 400 mg",no severe TEAEs or serious adverse events (SAEs)
same,TEAEs suspected to be related to Compound 1,"[8]; Part 1, single doses 3 mg to 400 mg, of the 22 total TEAEs",5
same,"ALT elevations, other 2 subjects","[8]; Part 2, 120 mg",less than 2 × above the upper limit of normal
same,peak ALT elevation,"[8]; Part 2, 120 mg, one subject, Day 17",2.3 ×ULN
same,TEAEs suspected to be related to Compound 1,"[8]; Part 2, 10 to 150 mg daily for 14 days, of the 42 total TEAEs",9
same,subjects with increase in serum transaminase levels (ALT) above ULN,"[8]; Part 2, 120-mg dose cohort, of 6 subjects on active treatment",3
same,transaminase level changes,"[8]; Part 2, 150-mg dose cohort, 14-day dosing period",no transaminase level changes were observed in any subject
same,tolerability,"[8]; single dose up to 400 mg, 14 days up to 150 mg",well tolerated
same,inhibition of TNF-α secretion,[9],approximately 70%
same,inhibition of intestinal CYP3A4/5,[10],potential for direct and time-dependent inhibition
same,AUC,[11]; 20 mg/kg,2820 ng·h/mL
same,AUC,[11]; 100 mg/kg,7190 ng·h/mL
same,AUC,[12],2820 ng·h/mL
same,margin of human 150 mg exposure below the mouse NOAEL,[13]; mouse NOAEL AUCLST vs human 150 mg AUCLST,21 fold
same,AUC,[13]; 100 mg/kg/day,28800 ng·h/mL
same,AUC,[13]; 750 mg/kg/day,144000 ng·h/mL
same,AUC,"[14]; cynomolgus monkey, plasma, oral, 375 mg/kg/day",9120 ng·h/mL
same,margin of monkey exposure over human 150-mg dose,[14]; monkey NOAEL AUCLST vs human 150 mg,6.7 fold
